# Measurements as given in patent US9663536B2, “Inhibitors of human immunodeficiency virus replication” (priority 2013, dated 2017).
# Test system: recombinant NL-Rluc virus
# Test: Inhibition of HIV replication (NL-Rluc virus in MT-2 cells, luciferase readout)
# Assay type: cell-based
# Conditions: Human immunodeficiency virus 1, MT2, 120 h
row,Compound,EC50 [nM]
1,"Cc1nc2cc3nn2c(c1[C@H](OC(C)(C)C)C(=O)O)N1CCC(C)(CC/C=C\CCOc2ccccc2Cc2cnn-3c2)CC1 [Example 35, (2S)-2-(tert-Butoxy)-2-[(24Z)-4,28-dimethyl-21-oxa-1,5,7,8,10,11-hexaazahexacyclo[26.2.2.1^6,9.1^10,13.0^2,7.0^15,20]tetratriaconta-2,4,6(34),8,11,13(33),15(20),16,18,24-decaen-3-yl]acetic acid]",20
2,Cc1nc2cc3nn2c(c1[C@H](OC(C)(C)C)C(=O)O)N1CCC(C)(CC/C=C\COc2cccc(c2)Cc2cnn-3c2)CC1 [Example 38],22
3,"Cc1nc2cc3nn2c(c1[C@H](OC(C)(C)C)C(=O)O)N1CCC(C)(/C=C/C=C/CCc2ccccc2Cc2cnc-3s2)CC1 [Example 12, (2S)-2-(tert-Butoxy)-2-[(23E,25E)-4,27-dimethyl-32-thia-1,5,7,8,11-pentaazahexacyclo[25.2.2.1^6,9.1^10,13.0^2,7.0^15,20]tritriaconta-2,4,6(33),8,10,12,15(20),16,18,23,25-undecaen-3-yl]acetic acid]",8
4,Cc1nc2cc3nn2c(c1[C@H](OC(C)(C)C)C(=O)O)N1CCC(C)(CC/C=C/COc2ccccc2Cn2cc-3cn2)CC1 [Example 41],3
5,"Cc1nc2cc3nn2c(c1[C@H](OC(C)(C)C)C(=O)O)N1CCC(C)(CC1)OCC=CCOc1ccccc1Cc1cnc-3s1 [Example 7, (2S)-2-(tert-Butoxy)-2-[4,27-dimethyl-21,26-dioxa-32-thia-1,5,7,8,11-pentaazahexacyclo[25.2.2.1^6,9.1^10,13.0^2,7.0^15,20]tritriaconta-2,4,6(33),8,10,12,15(20),16,18,23-decaen-3-yl]acetic acid]",6
6,"Cc1nc2cc3nn2c(c1[C@H](OC(C)(C)C)C(=O)O)N1CCC(C)(CC/C=C/C[C@@H](C)Oc2cc(F)ccc2Cc2cnc-3s2)CC1 [Example 19, (2S)-2-(tert-Butoxy)-2-[(22R,24E)-18-fluoro-4,22,28-trimethyl-21-oxa-33-thia-1,5,7,8,11-pentaazahexacyclo[26.2.2.1^6,9.1^10,13.0^2,7.0^15,20]tetratriaconta-2,4,6(34),8,10,12,15(20),16,18,24-decaen-3-yl]acetic acid]",17
7,"Cc1nc2cc3nn2c(c1[C@H](OC(C)(C)C)C(=O)O)N1CCC(C)(CC1)OC/C=C\CCOc1ccccc1Cc1cnn-3c1 [Example 32, (2S)-2-(tert-butoxy)-2-[(24Z)-4,28-dimethyl-21,27-dioxa-1,5,7,8,10,11-hexaazahexacyclo[26.2.2.1^6,9.1^10,13.0^2,7.0^15,20]tetratriaconta-2,4,6(34),8,11,13(33),15(20),16,18,24-decaen-3-yl]acetic acid]",6
8,"Cc1nc2cc3nn2c(c1[C@H](OC(C)(C)C)C(=O)O)N1CCC(C)(CC1)OCCCCCOc1ccccc1Cc1cnn-3c1 [Example 33, (2S)-2-(tert-Butoxy)-2-{4,28-dimethyl-21,27-dioxa-1,5,7,8,10,11-hexaazahexacyclo[26.2.2.1^6,9.1^10,13.0^2,7.1^15,20]tetratriaconta-2,4,6(34),8,11,13 (33), 15 (20), 16,18-nonaen-3-yl}acetic acid]",2
9,Cc1nc2cc3nn2c(c1[C@H](OC(C)(C)C)C(=O)O)N1CCC(C)(CC1)OCCCC[C@@H](C)Oc1ccccc1Cc1cnc-3s1 [Example 11],3
10,"Cc1nc2cc3nn2c(c1[C@H](OC(C)(C)C)C(=O)O)N1CCC(C)(/C=C/CCCCc2ccccc2Cc2cnc-3s2)CC1 [Example 13, (2S)-2-(tert-Butoxy)-2-[(25E)-4,27-dimethyl-32-thia-1,5,7,8,11-pentaazahexacyclo[25.2.2.1^6,9.1^10,13.0^2,7.0^15,20]tritriaconta-2,4,6(33),8,10,12,15(20),16,18,25-decaen-3-yl]acetic acid]",12
11,"Cc1nc2cc3nn2c(c1[C@H](OC(C)(C)C)C(=O)O)N1CCC(C)(CCCCCOc2cccc(c2)Cc2cnn-3c2)CC1 [Example 39, (2S)-2-(tert-Butoxy)-2-{4,26-dimethyl-20-oxa-1,5,7,8,10,11-hexaazahexacyclo[24.2.2.1^6,9.1^10,13.1^15,19.0^2,7]tritriaconta-2,4,6(33),8,11,13(32),15(31),16,18-nonaen-3-yl}acetic acid]",6
12,"Cc1nc2cc3nn2c(c1[C@H](OC(C)(C)C)C(=O)O)N1CCC(C)(CC/C=C/CCc2ccc(F)cc2Cc2cnc-3s2)CC1 (single isomer, unassigned) [Example 21]",13
13,"Cc1nc2cc3nn2c(c1[C@H](OC(C)(C)C)C(=O)O)N1CCC(C)(CC1)OC/C=C\CCc1ccccc1Cc1cnc-3s1 (single isomer, unassigned) [Example 2]",2
14,"Cc1nc2cc3nn2c(c1[C@H](OC(C)(C)C)C(=O)O)N1CCC(C)(CC1)OC/C=C/COc1ccc(F)cc1Cc1cnn-3c1 [Example 29, (2S)-2-(tert-Butoxy)-2-[(23E)-17-fluoro-4,27-dimethyl-21,26-dioxa-1,5,7,8,10,11-hexaazahexacyclo[25.2.2.1^6,9.1^10,13.0^2,7.0^15,20]tritriaconta-2,4,6(33),8,11,13(32),15(20),16,18,23-decaen-3-yl]acetic acid]",2
15,"Cc1nc2cc3nn2c(c1[C@H](OC(C)(C)C)C(=O)O)N1CCC(C)(CC/C=C/CCOc2ccccc2Cc2cnn-3c2)CC1 [Example 34, (2S)-2-(tert-Butoxy)-2-[(24E)-4,28-dimethyl-21-oxa-1,5,7,8,10,11-hexaazahexacyclo[26.2.2.1^6,9.1^10,13.0^2,7.0^15,20]tetratriaconta-2,4,6(34),8,11,13(33),15(20),16,18,24-decaen-3-yl]acetic acid]",8
16,"Cc1nc2cc3nn2c(c1[C@H](OC(C)(C)C)C(=O)O)N1CCC(C)(/C=C/CCCc2cc(F)ccc2Cc2cnc-3s2)CC1 (single isomer, unassigned) [Example 16]",12
17,"Cc1nc2cc3nn2c(c1[C@H](OC(C)(C)C)C(=O)O)N1CCC(C)(CC1)OC/C=C/CCOc1ccccc1Cc1cnn-3c1 [Example 31, (2S)-2-(tert-Butoxy)-2-[(24E)-4,28-dimethyl-21,27-dioxa-1,5,7,8,10,11-hexaazahexacyclo[26.2.2.1^6,9.1^10,13.0^2,7.0^15,20]tetratriaconta-2,4,6(34),8,11,13(33),15(20),16,18,24-decaen-3-yl]acetic acid]",2
18,"Cc1nc2cc3nn2c(c1[C@H](OC(C)(C)C)C(=O)O)N1CCC(C)(CC/C=C/COc2ccccc2Cc2cnc-3s2)CC1 [Example 24, (2S)-2-(tert-Butoxy)-2-[(23E)-4,27-dimethyl-21-oxa-32-thia-1,5,7,8,11-pentaazahexacyclo[25.2.2.1^6,9.1^10,13.0^2,7.0^15,20]tritriaconta-2,4,6(33),8,10,12,15(20),16,18,23-decaen-3-yl]acetic Acid]",11
19,"Cc1nc2cc3nn2c(c1[C@H](OC(C)(C)C)C(=O)O)N1CCC(C)(CC1)OCCCCCOc1ccccc1Cc1cnc-3s1 [Example 9, (2S)-2-(tert-Butoxy)-2-{4,28-dimethyl-21,27-dioxa-33-thia-1,5,7,8,11-pentaazahexacyclo[26.2.2.1^6,9.1^10,13.0^2,7.0^15,20]tetratriaconta-2,4,6(34),8,10,12,15(20),16,18-nonaen-3-yl}acetic acid]",2
20,"Cc1nc2cc3nn2c(c1[C@H](OC(C)(C)C)C(=O)O)N1CCC(C)(CC1)OCCCCCc1cccc(c1)Cc1cnc-3s1 [Example 4, (2S)-2-(tert-Butoxy)-2-{4,26-dimethyl-25-oxa-32-thia-1,5,7,8,11-pentaazahexacyclo[24.2.2.1^6,9.1^10,13.1^15,19.0^2,7]tritriaconta-2,4,6(33),8,10,12,15(31),16,18-nonaen-3-yl}acetic acid]",22
21,"Cc1nc2cc3nn2c(c1[C@H](OC(C)(C)C)C(=O)O)N1CCC(C)(CC1)OCCCCOc1ccccc1Cc1cnc-3o1 [Example 6, (2S)-2-(tert-Butoxy)-2-{4,27-dimethyl-21,26,32-trioxa-1,5,7,8,11-pentaazahexacyclo[25.2.2.1^6,9.1^10,13.0^2,7.0^15,20]tritriaconta-2,4,6(33),8,10,12,15(20),16,18-nonaen-3-yl}acetic acid]",4
22,"Cc1nc2cc3nn2c(c1[C@H](OC(C)(C)C)C(=O)O)N1CCC(C)(CC1)OC/C=C/CCOc1ccccc1Cc1cnc-3s1 [Example 8, (2S)-2-(tert-Butoxy)-2-[(24E)-4,28-dimethyl-21,27-dioxa-33-thia-1,5,7,8,11-pentaazahexacyclo[26.2.2.1^6,9.1^10,13.0^2,7.0^15,20]tetratriaconta-2,4,6(34),8,10,12,15(20),16,18,24-decaen-3-yl]acetic Acid]",8
23,"Cc1nc2cc3nn2c(c1[C@H](OC(C)(C)C)C(=O)O)N1CCC(C)(/C=C/CCCCc2cc(F)ccc2Cc2cnc-3s2)CC1 (single isomer, unassigned) [Example 15]",13
24,"Cc1nc2cc3nn2c(c1[C@H](OC(C)(C)C)C(=O)O)N1CCC(C)(CC1)OCCCCOc1ccc(F)cc1Cc1cnn-3c1 [Example 30, (2S)-2-(tert-Butoxy)-2-{17-fluoro-4,27-dimethyl-21,26-dioxa-1,5,7,8,10,11-hexaazahexacyclo[25.2.2.1^6,9.1^10,13.0^2,7.0^15,20]tritriaconta-2,4,6(33),8,11,13(32),15(20),16,18-nonaen-3-yl}acetic acid]",2
25,"Cc1nc2cc3nn2c(c1[C@H](OC(C)(C)C)C(=O)O)N1CCC(C)(CC/C=C\CCc2ccc(F)cc2Cc2cnc-3s2)CC1 (single isomer, unassigned) [Example 22]",35
26,"Cc1nc2cc3nn2c(c1[C@H](OC(C)(C)C)C(=O)O)N1CCC(C)(CC/C=C/CCc2cc(F)ccc2Cc2cnc-3s2)CC1 (single isomer, unassigned) [Example 17]",18
27,"Cc1nc2cc3nn2c(c1[C@H](OC(C)(C)C)C(=O)O)N1CCC(C)(CC/C=C\C[C@@H](C)Oc2cc(F)ccc2Cc2cnc-3s2)CC1 [Example 20, (2S)-2-(tert-Butoxy)-2-[(22R,24Z)-18-fluoro-4,22,28-trimethyl-21-oxa-33-thia-1,5,7,8,11-pentaazahexacyclo[26.2.2.1^6,9.1^10,13.0^2,7.0^15,20]tetratriaconta-2,4,6(34),8,10,12,15(20),16,18,24-decaen-3-yl]acetic acid]",32
